From PubChem BioAssay (NCI)
Where “and” joins values, the source holds several entries; their conditions need not be identical. Equal entries are not always repeated.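 Where inhibition never reached the appropriate level, the endpoint shown equals the highest concentration tested. Otherwise, values were interpolated linearly from a five-concentration, 48-hour dose response in 96-well plates. Abbreviation: GI50, concentration required for 50% inhibition of growth. TGI denotes the concentration required for complete inhibition of growth.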

Experiments:
Test in all cases: growth of human tumour cells (NCI), 48 h
786-0 renal = tested on: 786-0 renal
HCT-116 colon = tested on: HCT-116 colon
IGROV1 ovarian = tested on: IGROV1 ovarian
KM12 colon = tested on: KM12 colon
MOLT-4 leukemia = tested on: MOLT-4 leukemia
OVCAR-4 ovarian = tested on: OVCAR-4 ovarian
RPMI-8226 leukemia = tested on: RPMI-8226 leukemia
SK-MEL-28 melanoma = tested on: SK-MEL-28 melanoma
SR leukemia = tested on: SR leukemia
UACC-62 melanoma = tested on: UACC-62 melanoma

## O=c1cccc(Cl)[nH]1
786-0 renal
  TGI: > 100 µM
HCT-116 colon
  TGI: > 100 µM
IGROV1 ovarian
  TGI: > 100 µM
KM12 colon
  TGI: > 100 µM
MOLT-4 leukemia
  TGI: > 100 µM
OVCAR-4 ovarian
  TGI: > 100 µM
RPMI-8226 leukemia
  TGI: > 100 µM
SK-MEL-28 melanoma
  TGI: > 100 µM
SR leukemia
  TGI: > 100 µM
UACC-62 melanoma
  TGI: > 100 µM

## COc1cc2c(c(OC)c1OC)C(=O)NCCC2
786-0 renal
  TGI: > 100 µM
HCT-116 colon
  TGI: > 100 µM
IGROV1 ovarian
  TGI: > 100 µM
KM12 colon
  TGI: > 100 µM
MOLT-4 leukemia
  TGI: > 100 µM
OVCAR-4 ovarian
  TGI: > 100 µM
RPMI-8226 leukemia
  TGI: > 100 µM
SK-MEL-28 melanoma
  TGI: > 100 µM
SR leukemia
  TGI: > 100 µM
UACC-62 melanoma
  TGI: > 100 µM

## CCOC(=O)[C@@H]1CSC(CC)=C(C(=O)O)N1
786-0 renal
  GI50: > 100 µM
  TGI: > 100 µM
HCT-116 colon
  GI50: > 100 µM
  TGI: > 100 µM
IGROV1 ovarian
  GI50: > 100 µM
  TGI: > 100 µM
KM12 colon
  GI50: > 100 µM
  TGI: > 100 µM
MOLT-4 leukemia
  GI50: > 100 µM
  TGI: > 100 µM
OVCAR-4 ovarian
  GI50: > 100 µM
  TGI: > 100 µM
RPMI-8226 leukemia
  GI50: > 100 µM
  TGI: > 100 µM
SK-MEL-28 melanoma
  GI50: > 100 µM
  TGI: > 100 µM
SR leukemia
  GI50: > 100 µM
  TGI: > 100 µM
UACC-62 melanoma
  GI50: > 100 µM
  TGI: > 100 µM

## Cc1nc2ccccc2c(=O)n1/N=C(\N=Nc1cc(Cl)ccc1Cl)c1ccccc1
786-0 renal
  TGI: > 100 µM
HCT-116 colon
  TGI: > 31.6 µM
IGROV1 ovarian
  TGI: > 100 µM
KM12 colon
  TGI: 25.8 µM
MOLT-4 leukemia
  TGI: > 100 µM
OVCAR-4 ovarian
  TGI: > 100 µM
RPMI-8226 leukemia
  TGI: > 100 µM
SK-MEL-28 melanoma
  TGI: > 100 µM
SR leukemia
  TGI: > 100 µM
UACC-62 melanoma
  TGI: > 100 µM

## CC(O)[C@H](NC(=O)N[C@@H](CC(N)=O)c1nc(N2CCNCC2)no1)C(=O)O (stereo partly specified)
786-0 renal
  GI50: > 100 µM
  TGI: > 100 µM
HCT-116 colon
  GI50: > 100 µM
  TGI: > 100 µM
IGROV1 ovarian
  GI50: > 100 µM
  TGI: > 100 µM
KM12 colon
  GI50: > 100 µM
  TGI: > 100 µM
MOLT-4 leukemia
  GI50: > 100 µM
  TGI: > 100 µM
OVCAR-4 ovarian
  GI50: > 100 µM
  TGI: > 100 µM
RPMI-8226 leukemia
  GI50: > 100 µM
  TGI: > 100 µM
SK-MEL-28 melanoma
  GI50: > 100 µM
  TGI: > 100 µM
SR leukemia
  GI50: > 100 µM
  TGI: > 100 µM
UACC-62 melanoma
  GI50: > 100 µM
  TGI: > 100 µM

## C=CC(=O)Nc1cc2c(Nc3ccc(F)c(Cl)c3)ncnc2cc1C#CC(C)(C)N1CCN(C)CC1
786-0 renal
  GI50: 1.31 µM
  TGI: 2.82 µM
HCT-116 colon
  GI50: 1.52 µM
  TGI: 3.01 µM
IGROV1 ovarian
  GI50: 0.175 µM
  TGI: 1.4 µM
KM12 colon
  GI50: 2.36 µM
  TGI: 5.75 µM
MOLT-4 leukemia
  GI50: 1.05 µM
  TGI: 5.16 µM
OVCAR-4 ovarian
  GI50: 1.32 µM
  TGI: 2.86 µM
RPMI-8226 leukemia
  GI50: 1.77 µM
  TGI: 5.17 µM
SK-MEL-28 melanoma
  GI50: 3.1 µM
  TGI: 5.67 µM
SR leukemia
  GI50: 0.746 µM
  TGI: 5.61 µM
UACC-62 melanoma
  GI50: 2.94 µM
  TGI: 5.58 µM

## CC(=O)OCC1OC(n2c3c(cc(C#N)c2=S)CCCC3)C(OC(C)=O)C(OC(C)=O)C1OC(C)=O (stereo unspecified)
786-0 renal
  GI50: > 100 µM and 26.9 µM
  TGI: > 100 µM
HCT-116 colon
  GI50: > 93.3 µM
  TGI: > 100 µM
IGROV1 ovarian
  TGI: > 100 µM
KM12 colon
  GI50: 31.7 µM and > 100 µM
  TGI: > 100 µM
MOLT-4 leukemia
  GI50: 31.9 µM and > 100 µM
  TGI: > 100 µM
OVCAR-4 ovarian
  TGI: > 100 µM
RPMI-8226 leukemia
  GI50: 32.6 µM and > 100 µM
  TGI: > 100 µM
SK-MEL-28 melanoma
  TGI: > 100 µM
SR leukemia
  GI50: 32.4 µM and > 100 µM
  TGI: > 100 µM
UACC-62 melanoma
  GI50: > 100 µM and 26.5 µM
  TGI: > 100 µM

## C[As](C)SC1OCC(O)C(O)C1O (stereo unspecified)
786-0 renal
  GI50: 0.0708 µM
  TGI: 0.545 µM
HCT-116 colon
  GI50: 0.244 µM
  TGI: 1.37 µM
IGROV1 ovarian
  GI50: 0.805 µM
  TGI: 6.71 µM
KM12 colon
  GI50: 0.387 µM
  TGI: 3.83 µM
MOLT-4 leukemia
  GI50: 0.0825 µM
  TGI: 0.395 µM
OVCAR-4 ovarian
  GI50: 1.09 µM
  TGI: 7.63 µM
RPMI-8226 leukemia
  GI50: 0.0537 µM
  TGI: 0.604 µM
SK-MEL-28 melanoma
  GI50: 0.387 µM
  TGI: 3.33 µM
SR leukemia
  GI50: 0.0255 µM
  TGI: 0.0849 µM
UACC-62 melanoma
  GI50: 0.195 µM
  TGI: 0.556 µM

## CC1(C)C2CCC13C(=O)C1OC3(C2)C2C(=O)c3c(ccc4c3ccc3ccccc34)C(=O)C12 (stereo unspecified)
786-0 renal
  GI50: > 36.3 µM
  TGI: > 70.3 µM
HCT-116 colon
  GI50: > 36.9 µM
  TGI: > 57 µM
IGROV1 ovarian
  GI50: > 100 µM
  TGI: > 100 µM
KM12 colon
  GI50: 57.6 µM
  TGI: > 100 µM
MOLT-4 leukemia
  GI50: 1.1 µM
  TGI: 10.6 µM
OVCAR-4 ovarian
  GI50: 56.1 µM
  TGI: > 100 µM
RPMI-8226 leukemia
  GI50: 19.2 µM
  TGI: > 60 µM
SK-MEL-28 melanoma
  GI50: > 84.3 µM
  TGI: > 100 µM
SR leukemia
  GI50: 1.86 µM
  TGI: 51 µM
UACC-62 melanoma
  GI50: > 100 µM
  TGI: > 100 µM

## COc1ccc(-c2c(N)noc2-c2cc(OC)c3c(c2)OCCO3)cc1
786-0 renal
  GI50: < 0.012 µM
HCT-116 colon
  GI50: < 0.01 µM
  TGI: 6.37 µM
IGROV1 ovarian
  GI50: 0.0177 µM
  TGI: > 73.3 µM
KM12 colon
  GI50: < 0.01 µM
  TGI: 3.8 µM
MOLT-4 leukemia
  GI50: 0.0353 µM
  TGI: 5.31 µM
OVCAR-4 ovarian
  GI50: 0.0847 µM
  TGI: > 100 µM
RPMI-8226 leukemia
  GI50: 0.0333 µM
  TGI: 17.9 µM
SK-MEL-28 melanoma
  GI50: 0.026 µM
  TGI: > 100 µM
SR leukemia
  GI50: < 0.01 µM
  TGI: > 52.4 µM
UACC-62 melanoma
  GI50: < 0.01 µM
  TGI: 28.2 µM

## CC1OC(OC2C(O)C(O)C(O)C(O)C2O)C(N)CC1N=C(N)C(=O)O (stereo unspecified)
786-0 renal
  TGI: > 100 µM
HCT-116 colon
  TGI: > 100 µM
IGROV1 ovarian
  TGI: > 100 µM
KM12 colon
  TGI: > 100 µM
MOLT-4 leukemia
  TGI: > 100 µM
OVCAR-4 ovarian
  TGI: > 100 µM
RPMI-8226 leukemia
  TGI: > 100 µM
SK-MEL-28 melanoma
  TGI: > 100 µM
SR leukemia
  TGI: > 100 µM
UACC-62 melanoma
  TGI: > 100 µM

## COCC(C(=O)OC1C/C=C/C=C/C(=O)OC(C(C)C(O)C(C)CCC(OC(=O)C(C)N(C)C)C(C)C(OC(C)=O)C(C)/C=C/N(C)C=O)C/C=C/C(OC)CC(C)C/C=C(\C)C(OC)CCC(C)C(O)C1C)N(C)C (stereo unspecified)
786-0 renal
  GI50: < 0.0001 µM
  TGI: 0.000845 µM
HCT-116 colon
  GI50: < 0.0001 µM
  TGI: 0.00687 µM
IGROV1 ovarian
  GI50: < 0.0001 µM
  TGI: 0.0144 µM
KM12 colon
  GI50: < 0.0001 µM
  TGI: < 0.0001 µM
MOLT-4 leukemia
  GI50: < 0.0001 µM
  TGI: > 0.201 µM
OVCAR-4 ovarian
  GI50: 0.00537 µM
  TGI: > 0.281 µM
RPMI-8226 leukemia
  GI50: < 0.0001 µM
  TGI: 0.0077 µM
SK-MEL-28 melanoma
  GI50: < 0.0001 µM
  TGI: 0.0358 µM
SR leukemia
  GI50: < 0.0001 µM
  TGI: 0.00341 µM
UACC-62 melanoma
  GI50: < 0.0001 µM
  TGI: 0.000461 µM

## CNC(=O)OCc1nc(SC)n(C)c1COC(=O)NC
786-0 renal
  TGI: 413 µM
HCT-116 colon
  TGI: 372 µM
IGROV1 ovarian
  TGI: 531 µM
KM12 colon
  TGI: 380 µM
MOLT-4 leukemia
  TGI: 142 µM
OVCAR-4 ovarian
  TGI: 281 µM
RPMI-8226 leukemia
  TGI: 736 µM
SK-MEL-28 melanoma
  TGI: 380 µM
SR leukemia
  TGI: 473 µM
UACC-62 melanoma
  TGI: 103 µM

## O=c1[nH]cnc2n[nH]nc12
786-0 renal
  TGI: > 100 µM
HCT-116 colon
  TGI: 28.3 µM
IGROV1 ovarian
  TGI: > 100 µM
KM12 colon
  TGI: > 100 µM
MOLT-4 leukemia
  TGI: 98.4 µM
OVCAR-4 ovarian
  TGI: > 84.8 µM
RPMI-8226 leukemia
  TGI: > 65.9 µM
SK-MEL-28 melanoma
  TGI: > 61.6 µM
SR leukemia
  TGI: > 52.7 µM
UACC-62 melanoma
  TGI: 6.8 µM

## N#[N+]c1ccc(Nc2ccccc2)cc1
786-0 renal
  GI50: > 50 µg/mL
  TGI: > 50 µg/mL
HCT-116 colon
  GI50: > 50 µg/mL
  TGI: > 50 µg/mL
IGROV1 ovarian
  GI50: > 50 µg/mL
  TGI: > 50 µg/mL
KM12 colon
  GI50: 3.11 µg/mL
  TGI: > 50 µg/mL
MOLT-4 leukemia
  GI50: > 50 µg/mL
  TGI: > 50 µg/mL
OVCAR-4 ovarian
  GI50: 0.472 µg/mL
  TGI: 2.27 µg/mL
RPMI-8226 leukemia
  GI50: > 50 µg/mL
  TGI: > 50 µg/mL
SK-MEL-28 melanoma
  GI50: > 50 µg/mL
  TGI: > 50 µg/mL
SR leukemia
  GI50: > 50 µg/mL
  TGI: > 50 µg/mL
UACC-62 melanoma
  GI50: > 50 µg/mL
  TGI: > 50 µg/mL
